Assay results published in paper PMC10609273, “Radiosynthesis and Early Evaluation of a Positron Emission Tomography Imaging Probe [^18F]AGAL Targeting Alpha-Galactosidase A Enzyme for Fabry Disease” (Molecules, 2023).

Legend:
[1] = In vitro liver microsomal metabolism study, rat; type: in vitro ADME; details: rat liver microsomes
Description: Metabolic stability was assessed by incubating compounds in the presence of human, rat, and mouse liver microsomal fractions (Xenotech, Kansas City, KS, USA). All chemicals and reagents, including control compounds, were purchased from commercial sources such as Sigma-Aldrich (St. Louis, MO, USA) or Toronto Research Chemicals (North York, ON, Canada). Liver microsomal incubations were conducted with 100 mM phosphate buffer, 0.5 mg/mL of liver microsomal protein, 2 mM NADPH, 2.5 mM UDPGA, 3 mM MgCl2, alamethicin, and 1 μM test article for a total incubation volume of 80 µL. All reagents except the liver microsomes were mixed together and aliquoted (60 μL) into 96-well plates. The reaction was initiated by adding the microsomes (20 μL). At 0, 3, 7, 12, 20, and 30 min time points, the reactions were terminated with the addition of acetonitrile-containing carbutamide (as an internal standard). The terminated samples were then centrifuged at 2 °C to pellet the protein and the supernatant was injected onto an LC–MS. The test article was monitored for loss over time and the t1/2 was determined. The calculated t1/2 was then used as described below to determine the Eh (hepatic extraction ratio) for both human and rat.
The intrinsic clearance (CLint), hepatic clearance (CLh), and hepatic extraction ratio (Eh) were calculated using the equations below. CLint = (0.693/t1/2 in vitro) × (mL incubation volume/mg microsomal protein) × (X mg of microsomal protein/gram of liver) × (Y g of liver/kg of body weight)(1) CLh = Q × CLint/Q + CLint(2) Eh = CLh/Q(3) where: • CLint = intrinsic clearance (calculated from microsomal incubations) • X = 40 for human, 41.5 for rat and 45 for mouse • Y = 21.4 for human, 40 for rat and 50 for mouse • t1/2 = half-life • CLh = hepatic clearance • Q = liver blood flow rate = 1.24 L/h/kg for human, 4.8 L/h/kg for rat, and 5.4 L/h/kg for mouse • Eh = hepatic extraction ratio • CLh = hepatic clearance

[2] = molecular target: 167 protein targets (human and rodent recombinant receptors and binding sites); assay: Eurofins SpectrumScreen selectivity panel
Description: The AGAL molecule had ≥50% inhibition of specific binding or activity with IC50 values > 10 µM for a range of human and rodent recombinant receptors and binding sites (e.g., calcium and potassium channels and various subtypes of adrenergic, bombesin, calcitonin, serotonin, acetylcholine, histamine, and glutamate receptors or transporters).
The AGAL molecule was tested for estimated inhibition potency (IC50) and/or inhibition constants (Ki) on 167 protein targets (Eurofins SpectrumScreen).

## O=C(CCCCCCCn1cc(CCCF)nn1)N1[C@@H]2[C@H](O)[C@@H](O)[C@@H](O)[C@@H](CO)[C@@H]21 [AGAL]
[1]
  CLh: 55.7 mL/min/kg
  Eh (hepatic extraction ratio): 0.695
  microsomal stability, clearance in words: moderately cleared
[1]; 1 μM, NADPH + UDPGA
  CLint scaled at 1 µM: 182 mL/min/kg
[2]; range of human and rodent recombinant receptors and binding sites, read-out: IC50 values for off-target receptors and binding sites
  IC50: > 10 µM
[2]; selectivity panel, >160 proteins
  inhibition of specific binding or activity: ≥ 50%
